Results published in publication PMC7804942, “The amphibian peptide Yodha is virucidal for Zika and dengue viruses” (Scientific Reports, 2021).
Read-outs that look alike come from different tables or passages of the source. Where a SMILES comes first, the peptide text is derived from it.

What was measured:
DENV4 = assay: Focus forming assay, dengue virus; type: cell-based; conditions: 50 µM peptide, FFA
Procedure: (§1) Dengue virus strains 1, 2, 3 and 4 were treated with wither Yodha or control OVA peptide at (A) 50 µM (B) 160 µM concentration and the % of viral focus forming units were determined. (C) IC50 measurement of Yodha in DENVs infection by FFA. […] OVA peptide was used a negative control.
(§2) Peptides were incubated with ZIKV (100 FFU/well) for 2 h at 37 °C. This incubated mixture was used to infect Vero cells for 1.5 h at 37 °C. Cells and inoculum were overlaid with 2% methylcellulose solution (OptiMEM; Gibco) and incubated for 72 h at 37 °C. Cells were washed with PBS and fixed with a 1:1 methanol/acetone mixture for 30 min. Cells were blocked with 5% milk/PSB at room temperature for 20 min and incubated with primary antibody (anti-flavivirus mouse 4G2[10] antibody) for 2 h at 37 °C. Then, cells were incubated with secondary antibody (HRP-conjugated goat anti-mouse IgG, Cell Signaling) for 1 h at 37 °C. Cells were developed with TrueBlue Peroxidase Substrate (KPL). Plates were read on a CTL-ImmunoSpot S6 Micro analyzer.

DENV1 = assay: Focus forming assay, dengue virus; type: cell-based; conditions: 50 µM peptide, FFA
Procedure: as §1, §2

DENV2 = assay: Focus forming assay, dengue virus; type: cell-based; conditions: 50 µM peptide, FFA
Procedure: as §1, §2

ZIKV (PRVABC59 strain) = conditions: for reduction of ZIKV: dose escalation
Procedure: We screened frog skin peptides to identify peptides with potentially virucidal activity against ZIKV infection. Briefly, we incubated individual peptides with ZIKV (PRVABC59 strain) for 2 h and then tested viral viability in a focus-forming assay. […] A significant drawback of host defense peptides is that they can be toxic to mammalian cells. To identify non-toxic candidates among the 12 peptides, we measured the toxicity of each peptide against human erythrocytes. […] The C-terminus of Yodha peptide contains three negatively charged amino acids.
as §2, with “Peptides were incubated with ZIKV (100 FFU/well) for 2 h at 37 °C.” left out

CC[C@H](C)[C@H](NC(=O)[C@@H](NC(=O)CNC(=O)[C@H](CC(C)C)NC(=O)[C@H](Cc1ccccc1)NC(=O)[C@H](Cc1ccccc1)NC(=O)[C@H](CC(C)C)NC(=O)[C@H](CC(C)C)NC(=O)[C@H](CC(C)C)NC(=O)[C@H](CCSC)NC(=O)[C@@H](N)CO)[C@@H](C)O)C(=O)N[C@@H](CO)C(=O)N[C@@H](CC(C)C)C(=O)N[C@@H](CO)C(=O)N[C@@H](CC(C)C)C(=O)N[C@@H](CS)C(=O)N[C@@H](CCC(N)=O)C(=O)N[C@@H](CC(=O)O)C(=O)N[C@@H](CC(=O)O)C(=O)N[C@@H](CCC(N)=O)C(=O)N[C@@H](CCC(=O)O)C(=O)N[C@@H](CCCNC(=N)N)C(=O)N[C@@H](CS)C(=O)O [Yodha] (H-SMLLLFFLGTISLSLCQDDQERC-OH; N-terminus and C-terminus assumed)
inhibition of DENV4 (DENV4): efficiently inhibited
inhibition of DENV1 (DENV1): efficiently inhibited
inhibition of DENV2 (DENV2): efficiently inhibited
reduction of ZIKV (ZIKV (PRVABC59 strain); 10 µM peptide, FFA): 35%
reduction of ZIKV (ZIKV (PRVABC59 strain); 20 µM peptide, FFA): 50%
Viral titers (FFU) after timed exposure (ZIKV (PRVABC59 strain); 20 µM peptide, exposure 5 min, 15 min, 30 min, 1 h and 2 h, all time points): significantly decreased
reduction of ZIKV (ZIKV (PRVABC59 strain); 40 µM peptide, FFA): 65%
inhibition of ZIKV strain (ZIKV (PRVABC59 strain); 50 µM and 100 µM peptide vs OVA control, FFA): inhibited
reduction of ZIKV (ZIKV (PRVABC59 strain); 80 µM peptide, FFA): 80%
reduction of ZIKV (ZIKV (PRVABC59 strain); 160 µM peptide, FFA): 90%
IC50 (ZIKV (PRVABC59 strain); PRVABC59 strain, 2 h): 20 µM
time of exposure needed to neutralize / destroy ZIKV (ZIKV (PRVABC59 strain); exposure of virus to peptide): ≤ 5 min
